Assay results published in patent US6479487B1, “6, 9-disubstituted 2-[trans-(4-aminocyclohexyl)amino] purines” (Aventis Pharmaceuticals Inc., priority 1998, dated 2002).
pIC50: −log10 of the molar value. Like-named read-outs stand apart in the source and are kept apart here.

Columns and labels:
[1] = test system: neuronal PC12 cells and sympathetic neurons; conditions: two model systems of neuronal survival; Park et al. 1996; cited from earlier work
[2] = test system: PC12 cells, or rat sympathetic neurons; conditions: cited from earlier work; for concentration giving maximal protection from death: camptothecin-treated, minimum concentrations that fully inhibit DNA synthesis by proliferating PC12 cells; for cell death: day 6, in the presence or absence of camptothecin
cortical neurons = conditions: cited from earlier work; for pIC50: Park et al. 1997, read-out: IC50, protection against camptothecin-induced cortical neuronal death
MCF-7 = assay: In vitro tumor cell proliferation, MCF-7; assay type: cell-based, human; conditions: Homo sapiens, MCF7, MCF-7; sulforhodamine B or CyQUANT assay; read-out: In vitro Tumor Cell Proliferation (IC50, μM) Breast MCF-7
Method: (§1) The proliferation of tumor cells was measured using a sulforhodamine B assay as described in Skehan, P., et al., J. Natl. Cancer Inst. […] Tumor cells were harvested with trypsin-EDTA, cells that excluded trypan blue were counted, added to 96-well plates and incubated overnight at 37° C. Drug was added to the wells following dilution in culture medium. Three days later, the medium was removed and replenished with medium containing fresh drug and incubated an additional 4 days. The cells were then fixed with 0.1 ml 10% trichloroacetic acid for 60 min at 4° C. The plates were rinsed five times with tap water, air-dried and stained for 30 min with 0.4% sulforhodamine B in 1% acetic acid and air-dried.
(§2) Alternatively, the CyQUANT cell proliferation assay was used to quantitate cell proliferation.
(§3) Alternatively, the CyQUANT cell proliferation assay was used to quantify tumor cell proliferation. Tumor cells were harvested with trypsin-EDTA, cells that excluded trypan blue were counted, added to 96-well plates and incubated overnight at 37° C. Drug was added to the wells following dilution in culture medium. Three days later the medium was removed and the plates frozen at −80° C. for at least 30 minutes.
MCF7 is a human breast adenocarcinoma, hormone-dependent (HTB 22);

HT-29 = assay: In vitro tumor cell proliferation, HT-29; assay type: cell-based, human; conditions: many values given with an undefined *, read-out: In vitro Tumor Cell Proliferation (IC50, μM) Colon HT-29
In short: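 HT-29 cells seeded overnight at 37° C, then exposed to drug for 3 days, refed with fresh drug-containing medium for 4 more days. Proliferation read by sulforhodamine B staining after TCA fixation; alternatively by CyQUANT after freezing plates at −80° C following 3 days' drug exposure.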

HCT-15 = assay: In vitro tumor cell proliferation, HCT-15; assay type: cell-based, human; conditions: read-out: In vitro Tumor Cell Proliferation (IC50, μM) Colon HCT-15
Method: as §1, §2, §3

A549 = assay: In vitro tumor cell proliferation, A549; assay type: cell-based, human; conditions: Homo sapiens; A549; many values given with an undefined *; read-out: In vitro Tumor Cell Proliferation (IC50, μM) Lung A549
In short: (§4)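 SRB read-out: cells seeded overnight, 37° C; drug 3 d, medium plus fresh drug replaced, +4 d; TCA fix 60 min 4° C, 0.4% SRB stain 30 min. Alt. CyQUANT: drug 3 d, plates frozen −80° C before read.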

DMS-114 = assay: In vitro tumor cell proliferation, DMS-114; assay type: cell-based, human; conditions: many values given with an undefined *, read-out: In vitro Tumor Cell Proliferation (IC50, μM) Lung DMS-114
In short: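 Human small cell lung carcinoma DMS-114 cells plated overnight, then drug-treated for 3 days, medium and drug renewed, and incubated 4 more days. Growth read by sulforhodamine B staining after TCA fixation; alternatively by CyQUANT after 3 days' drug exposure and freezing at −80 °C.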

PC-3 = assay: In vitro tumor cell proliferation, PC-3; assay type: cell-based, human; conditions: Homo sapiens; PC-3; many values given with an undefined *; read-out: In vitro Tumor Cell Proliferation (IC50, μM) Prostate PC-3
In short: as §4

DU145 = assay: In vitro tumor cell proliferation, DU145; assay type: cell-based, human; conditions: Homo sapiens, DU-145, DU145; many values given with an undefined *; read-out: In vitro Tumor Cell Proliferation (IC50, μM) Prostate DU145
In short: as §4

[3] = test system: CDK-cyclin protein kinases; conditions: Vesely et al. 1994; cited from earlier work
[4] = test system: cAMP- and cGMP-dependent kinases, and protein kinase C; conditions: cited from earlier work

Row | SMILES | effect on death of neuronal PC12 cells and sympathetic neurons [1] | concentration giving maximal protection from death [2] [µM] | cell death [2] | pIC50 (cortical neurons) | IC50 (MCF-7) [µM] | IC50 (HT-29; HT-29) [µM] | IC50 (HT-29; Homo sapiens, HT-29, HT-29) [µM] | IC50 (HCT-15; HCT-15) [µM] | IC50 (HCT-15; Homo sapiens, HCT-15, HCT-15) [µM] | IC50 (A549) [µM] | IC50 (DMS-114; DMS-114) [µM] | IC50 (DMS-114; Homo sapiens, DMS-114, DMS-114) [µM] | IC50 (PC-3) [µM] | IC50 (DU145) [µM] | pIC50 [3] | effect on other major protein kinases [4] | prevention of cell death of camptothecin-treated neuronal cells ([2]; PC12 cells / sympathetic neurons) | prevention of cell death of camptothecin-treated neuronal cells (cortical neurons; cortical neurons)
1 | CN1CC[C@H](c2c(O)cc(O)c3c(=O)cc(-c4ccccc4Cl)oc23)[C@H](O)C1 [Flavopiridol] | suppress the death | 1 | approximately 30% | 7.00 | – | – | – | – | – | – | – | – | – | – | – | – | – | –
2 | Cn1cnc2c(NCc3ccccc3)nc(NCCO)nc21 [Olomoucine, 6-(benzylamino)-2-[(2-hydroxyethyl)amino]-9-methylpurine, reference compound] | suppress the death | 200 | approximately 30% | 4.00 | 35 | 58 | 53 | 63 | 62 | 69 | 76 | 50 | 55 | > 100 | ~5.15 | no effect | – | –
3 | Cn1cnc2nc(NCCO)nc(NCc3ccccc3)c21 [iso-olomoucine] | – | – | – | – | – | – | – | – | – | – | – | – | – | – | – | – | failed to prevent the cell death | failed to prevent the cell death
